From patent US9676782B2, “Substituted pyrazolo[1,5-a]pyrazines as negative allosteric modulators of metabotropic glutamate receptor 3” (Vanderbilt University, priority 2014, dated 2017)
Read-outs that look alike come from different tables or passages of the source.

Key:
[1] = target: rat mGlu3 (Rattus norvegicus (Rat), UniProt P31422); test: mGlu3 Ca2+ flux assay; assay type: cell-based; conditions: for remaining activity at 30 µM: amplitude of response at 30 μM test compound as % of maximal response to glutamate, read-out: rat mGlu3 Glu max (%); for IC50: read-out: rat mGlu3 IC50
How it was run: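 Cells expressing rat mGlu3 were grown overnight at 37° C. under 5% CO2, then loaded with dye. After dye removal they received 20 μL of assay buffer and sat 10 minutes at room temperature. Calcium flux was read on a Hamamatsu FDSS7000, and fluorescence was expressed as fold over basal and normalized to the maximal glutamate response.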

[2] = target: rat mGlu5 (Rattus norvegicus (Rat), UniProt P31424); test: mGlu5 Ca2+ flux assay; assay type: cell-based; conditions: for Fold selectivity (mGlu3 vs. mGlu5): ratio of rat mGlu5 EC50 or IC50 to rat mGlu3 IC50; for EC50 / IC50: read-out: rat mGlu5 EC50 or IC50; for IC50: glutamate EC80; for Emax at 30 µM: read-out: rat mGlu5 Glu max (%)
How it was run: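 Transfected cells grown overnight at 37° C/5% CO2, dye-loaded, then 5 min in assay buffer at RT before Ca2+ flux read on FDSS7000. Fluorescence as F/F0 fold over basal, normalized to maximal glutamate response; EC50 from unconstrained 4-parameter logistic fit, triplicates weighted evenly.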

[3] = NAM potency, decrease of glutamate EC80 response, >30,000 = no measurable activity, >10,000 = no plateau
[4] = compound noted as NAM or partial antagonist (PAnt) at mGlu5
[5] = compound noted as NAM or partial antagonist (PAnt) at mGlu5, response at 30 μM as % of maximal glutamate response
[6] = PAM, amplitude of response at 30 μM test compound as % of maximal response to glutamate

rat mGlu5, sequence (P31424 21-1203): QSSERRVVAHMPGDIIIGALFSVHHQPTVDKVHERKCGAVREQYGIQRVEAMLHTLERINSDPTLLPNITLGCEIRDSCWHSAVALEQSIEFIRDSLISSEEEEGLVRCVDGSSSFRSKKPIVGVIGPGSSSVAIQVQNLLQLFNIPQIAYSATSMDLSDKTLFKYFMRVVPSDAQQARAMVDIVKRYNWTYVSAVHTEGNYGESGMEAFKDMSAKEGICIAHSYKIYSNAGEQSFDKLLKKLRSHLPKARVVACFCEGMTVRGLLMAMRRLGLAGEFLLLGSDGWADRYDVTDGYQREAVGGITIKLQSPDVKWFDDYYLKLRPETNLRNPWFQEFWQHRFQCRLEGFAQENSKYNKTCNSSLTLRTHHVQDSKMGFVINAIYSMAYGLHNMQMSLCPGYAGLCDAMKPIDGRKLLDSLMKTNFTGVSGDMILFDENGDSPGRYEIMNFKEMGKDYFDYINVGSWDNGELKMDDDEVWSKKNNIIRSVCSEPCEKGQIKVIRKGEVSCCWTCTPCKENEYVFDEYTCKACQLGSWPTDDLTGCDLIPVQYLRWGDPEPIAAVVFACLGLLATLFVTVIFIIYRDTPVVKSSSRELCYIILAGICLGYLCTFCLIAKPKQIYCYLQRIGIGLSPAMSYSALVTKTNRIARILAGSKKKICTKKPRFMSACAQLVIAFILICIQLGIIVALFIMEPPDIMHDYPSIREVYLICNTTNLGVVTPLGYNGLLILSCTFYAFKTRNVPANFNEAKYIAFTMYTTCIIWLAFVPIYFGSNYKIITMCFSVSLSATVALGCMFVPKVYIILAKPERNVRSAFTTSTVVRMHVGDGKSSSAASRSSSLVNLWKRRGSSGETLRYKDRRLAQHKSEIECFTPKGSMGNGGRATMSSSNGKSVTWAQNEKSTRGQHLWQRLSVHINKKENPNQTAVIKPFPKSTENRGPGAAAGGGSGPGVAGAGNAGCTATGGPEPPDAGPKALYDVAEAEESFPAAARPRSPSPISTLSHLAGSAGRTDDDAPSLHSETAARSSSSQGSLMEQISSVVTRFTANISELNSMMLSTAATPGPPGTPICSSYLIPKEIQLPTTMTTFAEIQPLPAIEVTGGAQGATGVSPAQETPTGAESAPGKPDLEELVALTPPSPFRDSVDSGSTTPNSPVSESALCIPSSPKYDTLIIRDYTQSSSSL
rat mGlu3, sequence (P31422 23-879): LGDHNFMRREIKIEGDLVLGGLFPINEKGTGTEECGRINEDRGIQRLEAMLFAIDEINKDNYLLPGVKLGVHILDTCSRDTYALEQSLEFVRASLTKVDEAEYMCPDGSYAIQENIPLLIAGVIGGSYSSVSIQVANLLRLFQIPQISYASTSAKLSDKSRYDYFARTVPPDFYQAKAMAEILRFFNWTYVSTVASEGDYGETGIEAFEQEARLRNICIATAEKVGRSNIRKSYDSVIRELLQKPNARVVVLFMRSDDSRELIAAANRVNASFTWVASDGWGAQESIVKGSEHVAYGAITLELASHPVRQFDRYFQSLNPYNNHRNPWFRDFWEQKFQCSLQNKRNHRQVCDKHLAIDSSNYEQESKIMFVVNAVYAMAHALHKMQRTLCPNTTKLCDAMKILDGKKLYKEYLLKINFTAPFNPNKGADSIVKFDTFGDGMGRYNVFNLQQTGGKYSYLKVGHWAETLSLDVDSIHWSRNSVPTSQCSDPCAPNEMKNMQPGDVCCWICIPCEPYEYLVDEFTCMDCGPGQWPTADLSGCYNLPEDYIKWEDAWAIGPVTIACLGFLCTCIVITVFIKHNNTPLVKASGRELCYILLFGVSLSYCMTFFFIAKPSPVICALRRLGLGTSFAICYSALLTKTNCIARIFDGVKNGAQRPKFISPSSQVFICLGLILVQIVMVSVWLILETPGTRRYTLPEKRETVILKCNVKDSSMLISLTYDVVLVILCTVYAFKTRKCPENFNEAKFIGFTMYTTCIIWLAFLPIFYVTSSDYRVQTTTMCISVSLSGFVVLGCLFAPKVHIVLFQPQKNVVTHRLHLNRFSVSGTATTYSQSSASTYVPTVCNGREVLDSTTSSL

| IC50 [1] [µM] | Structure (SMILES) | remaining activity at 30 µM [1] [%] | Fold selectivity (mGlu3 vs. mGlu5) [2] | EC50 [2] [µM] | IC50 [1, 3] [µM] | IC50 [2, 4] [µM] | Emax at 30 µM [2, 5] [%] | Emax at 30 µM [2, 6] [%] |
| --- | --- | --- | --- | --- | --- | --- | --- | --- |
|  | O=C1c2cc(CNc3ccc(OC(F)F)cc3F)nn2CCN1c1cccc(Cl)c1 [Compound 150, 5-(3-chlorophenyl)-2-(((4-(difluoromethoxy)-2-fluorophenyl)amino)methyl)-6,7-dihydropyrazolo[1,5-a]pyrazin-4(5H)-one] | 2.97 | >21 | > 30 | 1.39 |  |  |  |
|  | O=C1c2cc(CNc3ccc(OC(F)F)cc3F)nn2CCN1c1ccccn1 [Compound 151, 2-(((4-(difluoromethoxy)-2-fluorophenyl)amino)methyl)-5-(pyridin-2-yl)-6,7-dihydropyrazolo[1,5-a]pyrazin-4(5H)-one] | 1.14 | >31 | > 30 | 0.943 |  |  |  |
|  | O=C1c2cc(CNc3ccc(OC(F)F)cc3F)nn2CCN1c1cc(F)cc(F)c1 [Compound 152, 2-(((4-(difluoromethoxy)-2-fluorophenyl)amino)methyl)-5-(3,5-difluorophenyl)-6,7-dihydropyrazolo[1,5-a]pyrazin-4(5H)-one] | 2.23 | >28 | > 30 | 1.07 |  |  |  |
|  | O=C1c2cc(CNc3ccc(OC(F)F)cc3F)nn2CCN1c1ccccc1F [Compound 153, 2-(((4-(difluoromethoxy)-2-fluorophenyl)amino)methyl)-5-(2-fluorophenyl)-6,7-dihydropyrazolo[1,5-a]pyrazin-4(5H)-one] | 2.29 | >38 | > 30 | 0.772 |  |  |  |
|  | O=C1c2cc(CNc3ccc(F)cn3)nn2CCN1c1ccc(F)cc1 [Compound 155, 5-(4-fluorophenyl)-2-(((5-fluoropyridin-2-yl)amino)methyl)-6,7-dihydropyrazolo[1,5-a]pyrazin-4(5H)-one] | 1.5 | >6.8 |  | 1.46 | > 10 | 11.3 |  |
|  | O=C1c2cc(CNc3ccccn3)nn2CCN1c1ccc(F)cc1 [Compound 156, 5-(4-fluorophenyl)-2-((pyridin-2-ylamino)methyl)-6,7-dihydropyrazolo[1,5-a]pyrazin-4(5H)-one] | -1.17 | >3.1 |  | 3.19 | > 10 | 49.1 |  |
|  | Cc1cccc(NCc2cc3n(n2)CCN(c2ccc(F)cc2)C3=O)n1 [Compound 157, 5-(4-fluorophenyl)-2-(((6-methylpyridin-2-yl)amino)methyl)-6,7-dihydropyrazolo[1,5-a]pyrazin-4(5H)-one] | -0.19 | >9.3 | > 30 | 3.21 |  |  |  |
|  | O=C1c2cc(CNc3ccc(Cl)cn3)nn2CCN1c1ccc(F)cc1 [Compound 158, 2-(((5-chloropyridin-2-yl)amino)methyl)-5-(4-fluorophenyl)-6,7-dihydropyrazolo[1,5-a]pyrazin-4(5H)-one] | 1.27 | 4.02 |  | 0.602 | 2.42 | 73.6 |  |
|  | Cc1ccc(NCc2cc3n(n2)CCN(c2ccc(F)cc2)C3=O)nc1 [Compound 159, 5-(4-fluorophenyl)-2-(((5-methylpyridin-2-yl)amino)methyl)-6,7-dihydropyrazolo[1,5-a]pyrazin-4(5H)-one] | 0.86 | >16 | > 30 | 1.77 |  |  |  |
|  | Cc1cccnc1NCc1cc2n(n1)CCN(c1ccc(F)cc1)C2=O [Compound 160, 5-(4-fluorophenyl)-2-(((3-methylpyridin-2-yl)amino)methyl)-6,7-dihydropyrazolo[1,5-a]pyrazin-4(5H)-one] | 0.18 | >6.3 | > 30 | 4.7 |  |  |  |
|  | Cc1ccnc(NCc2cc3n(n2)CCN(c2ccc(F)cc2)C3=O)c1 [Compound 161, 5-(4-fluorophenyl)-2-(((4-methylpyridin-2-yl)amino)methyl)-6,7-dihydropyrazolo[1,5-a]pyrazin-4(5H)-one] | 1.14 | >8.0 | > 30 | 3.75 |  |  |  |
|  | O=C1c2cc(CNc3ncccc3C(F)(F)F)nn2CCN1c1ccc(F)cc1 [Compound 162, 5-(4-fluorophenyl)-2-(((3-(trifluoromethyl)pyridin-2-yl)amino)methyl)-6,7-dihydropyrazolo[1,5-a]pyrazin-4(5H)-one] | 0.79 | >7.8 | > 30 | 3.84 |  |  |  |
|  | O=C1c2cc(CNc3cccc(Cl)n3)nn2CCN1c1ccc(F)cc1 [Compound 163, 2-(((6-chloropyridin-2-yl)amino)methyl)-5-(4-fluorophenyl)-6,7-dihydropyrazolo[1,5-a]pyrazin-4(5H)-one] | 1.15 | >25 | > 30 | 1.18 |  |  |  |
|  | O=C1c2cc(CNc3cc(Cl)ccn3)nn2CCN1c1ccc(F)cc1 [Compound 164, 2-(((4-chloropyridin-2-yl)amino)methyl)-5-(4-fluorophenyl)-6,7-dihydropyrazolo[1,5-a]pyrazin-4(5H)-one] | 2.99 | >7.5 | > 10 | 1.32 |  |  | 35.3 |
|  | O=C1c2cc(CNc3ncccc3F)nn2CCN1c1ccc(F)cc1 [Compound 165, 5-(4-fluorophenyl)-2-(((3-fluoropyridin-2-yl)amino)methyl)-6,7-dihydropyrazolo[1,5-a]pyrazin-4(5H)-one] | 1.66 | >14 | > 30 | 2.11 |  |  |  |
|  | O=C1c2cc(CNc3cccc(C(F)(F)F)n3)nn2CCN1c1ccc(F)cc1 [Compound 166, 5-(4-fluorophenyl)-2-(((6-(trifluoromethyl)pyridin-2-yl)amino)methyl)-6,7-dihydropyrazolo[1,5-a]pyrazin-4(5H)-one] | 2.06 | >4.2 | > 10 | 2.35 |  |  | 50.6 |
| 3.72 | CCCN(Cc1cc2n(n1)CCN(c1ccc(F)c(F)c1)C2=O)c1ccc(OC)cc1 [Compound 167, 5-(3,4-Difluorophenyl)-2-(((4-methoxyphenyl)(propyl)amino)methyl)-6,7-dihydropyrazolo[1,5-a]pyrazin-4(5H)-one] | 1.32 | 8.06 | > 30 |  |  |  |  |
| 2.12 | CCN(Cc1cc2n(n1)CCN(c1ccc(F)c(F)c1)C2=O)c1ccc(OC)cc1 [Compound 168, 5-(3,4-difluorophenyl)-2-((ethyl(4-methoxyphenyl)amino)methyl)-6,7-dihydropyrazolo[1,5-a]pyrazin-4(5H)-one] | 1.95 | >14 | > 30 |  |  |  |  |

| Structure (SMILES) | IC50 [1] [µM] | remaining activity at 30 µM [1] [%] | Fold selectivity (mGlu3 vs. mGlu5) [2] | EC50 [2] [µM] | IC50 [1, 3] [µM] | IC50 [2, 4] [µM] | Emax at 30 µM [2, 5] [%] | Emax at 30 µM [2, 6] [%] |
| --- | --- | --- | --- | --- | --- | --- | --- | --- |
| O=C1c2cc(CNc3ccc(OC(F)F)cc3F)nn2CCN1c1ccc(Cl)cc1F [Compound 149, 5-(4-chloro-2-fluorophenyl)-2-(((4-(difluoromethoxy)-2-fluorophenyl)amino)methyl)-6,7-dihydropyrazolo[1,5-a]pyrazin-4(5H)-one] | > 10 | 25.8 | >3 | > 30 |  |  |  |  |
